Where a SMILES comes first, the peptide text is derived from it. [ ]: non-standard residue; d: D form. Cha = N[C@@H](CC1CCCCC1)C(=O)O; Chg = N[C@H](C(=O)O)C1CCCCC1; Tle = CC(C)(C)[C@H](N)C(=O)O; dDab = NCC[C@@H](N)C(=O)O; Orn = NCCC[C@H](N)C(=O)O; Dab = NCC[C@H](N)C(=O)O; Nva = CCC[C@H](N)C(=O)O
System: human red blood cells (hRBC)
Assay type: cell-based
Settings: red cells of human, 1 h
Experimental: The peptides were tested for their hemolytic activity against human red blood cells (hRBC). Fresh hRBC were washed three times with phosphate buffered saline (PBS) and centrifuged for 10 min at 2000×g. Compounds (100 μg/ml) were incubated with 20% hRBC (v/v) for 1 h at 37° C. and shaking at 300 rpm. The final erythrocyte concentration was approximately 0.9×10^9 cells/ml. A value of 0% and 100% cell lyses, respectively, was determined by incubation of hRBC in the presence of PBS containing 0.001% acetic acid and 2.5% Triton X-100 in H2O, respectively. The samples were centrifuged, the supernatants were 8-fold diluted in PBS buffer and the optical densities (OD) were measured at 540 nm. The 100% lyses value (OD540H2O) gave an OD540 of approximately 0.5-1.0. Percent hemolysis was calculated as follows: (OD540peptide/OD540H2O)×100%.

| SMILES | Hemolysis at 100 μg/ml |
| --- | --- |
| CC(C)[C@@H]1NC(=O)[C@@H]2CCCN2C(=O)[C@H]2CCCN2C(=O)[C@H](CO)NC(=O)[C@H](C)NC(=O)[C@H](C(C)(C)C)NC(=O)[C@H](CCN)NC(=O)[C@H](Cc2c[nH]c3ccccc23)NC(=O)[C@H](CCN)NC(=O)[C@@H](CCN)NC(=O)[C@H](CCCN)NC(=O)[C@H](CCN)NC(=O)[C@H](Cc2ccc(O)cc2)NC(=O)[C@H](Cc2c[nH]cn2)NC1=O [compound 7, cyclo(-Val-His-Tyr-Dab-Orn-^DDab-Dab-Trp-Dab-tBuGly-Ala-Ser-^DPro-Pro-)] (cyclo(VHY[Dab][Orn][dDab][Dab]W[Dab][Tle]AS[dP]P)) | 1% |
| CCC[C@@H]1NC(=O)[C@@H]2CCCN2C(=O)[C@H]2CCCN2C(=O)[C@H](CO)NC(=O)[C@H](C)NC(=O)[C@H](C(C)(C)C)NC(=O)[C@H](CCN)NC(=O)[C@H](Cc2c[nH]c3ccccc23)NC(=O)[C@H](CCN)NC(=O)[C@@H](CCN)NC(=O)[C@H](CCCN)NC(=O)[C@H](CCN)NC(=O)[C@H](Cc2ccc(O)cc2)NC(=O)[C@H](Cc2c[nH]cn2)NC1=O [compound 8, cyclo(-Nva-His-Tyr-Dab-Orn-^DDab-Dab-Trp-Dab-tBuGly-Ala-Ser-^DPro-Pro-)] (cyclo([Nva]HY[Dab][Orn][dDab][Dab]W[Dab][Tle]AS[dP]P)) | 1% |
| C[C@@H]1NC(=O)[C@H](C2CCCCC2)NC(=O)[C@H](CCN)NC(=O)[C@H](Cc2c[nH]c3ccccc23)NC(=O)[C@H](CCN)NC(=O)[C@@H](CCN)NC(=O)[C@H](CCCCN)NC(=O)[C@H](CCN)NC(=O)[C@H](CC2CCCCC2)NC(=O)[C@H](Cc2c[nH]c3ccccc23)NC(=O)[C@H](Cc2c[nH]c3ccccc23)NC(=O)[C@@H]2CCCN2C(=O)[C@H]2CCCN2C(=O)[C@H](CO)NC1=O [compound 10, cyclo(-Trp-Trp-Cha-Dab-Lys-^DDab-Dab-Trp-Dab-Chg-Ala-Ser-^DPro-Pro-)] (cyclo(WW[Cha][Dab]K[dDab][Dab]W[Dab][Chg]AS[dP]P)) | 1% |
| C[C@@H]1NC(=O)[C@H](CC2CCCCC2)NC(=O)[C@H](CCN)NC(=O)[C@H](Cc2c[nH]c3ccccc23)NC(=O)[C@H](CCN)NC(=O)[C@@H](CCN)NC(=O)[C@H](CCCN)NC(=O)[C@H](CCN)NC(=O)[C@H](C(C)(C)C)NC(=O)[C@H](Cc2c[nH]c3ccccc23)NC(=O)[C@H](Cc2c[nH]c3ccccc23)NC(=O)[C@@H]2CCCN2C(=O)[C@H]2CCCN2C(=O)[C@H](CO)NC1=O [compound 12, cyclo(-Trp-Trp-tBuGly-Dab-Orn-^DDab-Dab-Trp-Dab-Cha-Ala-Ser-^DPro-Pro-)] (cyclo(WW[Tle][Dab][Orn][dDab][Dab]W[Dab][Cha]AS[dP]P)) | 3% |
| CC(C)C[C@@H]1NC(=O)[C@H](Cc2c[nH]c3ccccc23)NC(=O)[C@H](Cc2c[nH]c3ccccc23)NC(=O)[C@@H]2CCCN2C(=O)[C@H]2CCCN2C(=O)[C@H](C(C)C)NC(=O)[C@H](C)NC(=O)[C@H](C(C)C)NC(=O)[C@H](CCN)NC(=O)[C@H](Cc2c[nH]c3ccccc23)NC(=O)[C@H](CCN)NC(=O)[C@@H](CCN)NC(=O)[C@H](CCCN)NC(=O)[C@H](CCN)NC1=O [compound 13, cyclo(-Trp-Trp-Leu-Dab-Orn-^DDab-Dab-Trp-Dab-Val-Ala-Val-^DPro-Pro-)] (cyclo(WWL[Dab][Orn][dDab][Dab]W[Dab]VAV[dP]P)) | 2% |
| C[C@@H]1NC(=O)[C@H](C(C)(C)C)NC(=O)[C@H](CCN)NC(=O)[C@H](Cc2c[nH]c3ccccc23)NC(=O)[C@H](CCN)NC(=O)[C@H](CCN)NC(=O)[C@H](CCCN)NC(=O)[C@H](CCN)NC(=O)[C@H](Cc2ccc(O)cc2)NC(=O)[C@H](Cc2c[nH]cn2)NC(=O)[C@H](Cc2c[nH]c3ccccc23)NC(=O)[C@@H]2CCCN2C(=O)[C@H]2CCCN2C(=O)[C@H](CO)NC1=O [compound 18, cyclo(-Trp-His-Tyr-Dab-Orn-Dab-Dab-Trp-Dab-tBuGly-Ala-Ser-^DPro-Pro-)] (cyclo(WHY[Dab][Orn][Dab][Dab]W[Dab][Tle]AS[dP]P)) | 0% |
| C[C@@H]1NC(=O)[C@H](C(C)(C)C)NC(=O)[C@H](CCN)NC(=O)[C@H](Cc2c[nH]c3ccccc23)NC(=O)[C@H](CCN)NC(=O)[C@H](CCN)NC(=O)[C@H](CCCN)NC(=O)[C@H](CCN)NC(=O)[C@H](CC2CCCCC2)NC(=O)[C@H](Cc2c[nH]cn2)NC(=O)[C@H](Cc2c[nH]c3ccccc23)NC(=O)[C@@H]2CCCN2C(=O)[C@H]2CCCN2C(=O)[C@H](CO)NC1=O [compound 19, cyclo(-Trp-His-Cha-Dab-Orn-Dab-Dab-Trp-Dab-tBuGly-Ala-Ser-^DPro-Pro-)] (cyclo(WH[Cha][Dab][Orn][Dab][Dab]W[Dab][Tle]AS[dP]P)) | 0% |
| CC[C@H](C)[C@@H]1NC(=O)[C@@H]2CCCN2C(=O)[C@H]2CCCN2C(=O)[C@H](CO)NC(=O)[C@H](C)NC(=O)[C@H](C(C)(C)C)NC(=O)[C@H](CCN)NC(=O)[C@H](Cc2c[nH]c3ccccc23)NC(=O)[C@H](CCN)NC(=O)[C@@H](CCN)NC(=O)[C@H](CCCN)NC(=O)[C@H](CCN)NC(=O)[C@H](Cc2ccc(O)cc2)NC(=O)[C@H](Cc2c[nH]cn2)NC1=O [compound 20, cyclo(-Ile-His-Tyr-Dab-Orn-^DDab-Dab-Trp-Dab-tBuGly-Ala-Ser-^DPro-Pro-)] (cyclo(IHY[Dab][Orn][dDab][Dab]W[Dab][Tle]AS[dP]P)) | 0% |
| CC[C@H](C)[C@@H]1NC(=O)[C@H](CCN)NC(=O)[C@H](Cc2c[nH]c3ccccc23)NC(=O)[C@H](CCN)NC(=O)[C@@H](CCN)NC(=O)[C@H](CCCN)NC(=O)[C@H](CCN)NC(=O)[C@H](Cc2ccc(O)cc2)NC(=O)[C@H](Cc2c[nH]cn2)NC(=O)[C@H]([C@@H](C)CC)NC(=O)[C@@H]2CCCN2C(=O)[C@H]2CCCN2C(=O)[C@H](CO)NC(=O)[C@H](C)NC1=O [compound 21, cyclo(-Ile-His-Tyr-Dab-Orn-^DDab-Dab-Trp-Dab-Ile-Ala-Ser-^DPro-Pro-)] (cyclo(IHY[Dab][Orn][dDab][Dab]W[Dab]IAS[dP]P)) | 1% |
| CC(C)C[C@@H]1NC(=O)[C@@H]2CCCN2C(=O)[C@H]2CCCN2C(=O)[C@H](CO)NC(=O)[C@H](C)NC(=O)[C@H](C2CCCCC2)NC(=O)[C@H](CCN)NC(=O)[C@H](Cc2c[nH]c3ccccc23)NC(=O)[C@H](CCN)NC(=O)[C@H](CCN)NC(=O)[C@H](CCCN)NC(=O)[C@H](CCN)NC(=O)[C@H](Cc2ccc(O)cc2)NC(=O)[C@H](Cc2c[nH]cn2)NC1=O [compound 22, cyclo(-Leu-His-Tyr-Dab-Orn-Dab-Dab-Trp-Dab-Chg-Ala-Ser-^DPro-Pro-)] (cyclo(LHY[Dab][Orn][Dab][Dab]W[Dab][Chg]AS[dP]P)) | 0% |
| CC(C)C[C@@H]1NC(=O)[C@@H]2CCCN2C(=O)[C@H]2CCCN2C(=O)[C@H](CO)NC(=O)[C@H](C)NC(=O)[C@H](C2CCCCC2)NC(=O)[C@H](CCN)NC(=O)[C@H](Cc2c[nH]c3ccccc23)NC(=O)[C@H](CCN)NC(=O)[C@@H](CCN)NC(=O)[C@H](CCCN)NC(=O)[C@H](CCN)NC(=O)[C@H](Cc2ccc(O)cc2)NC(=O)[C@H](Cc2c[nH]cn2)NC1=O [compound 23, cyclo(-Leu-His-Tyr-Dab-Orn-^DDab-Dab-Trp-Dab-Chg-Ala-Ser-^DPro-Pro-)] (cyclo(LHY[Dab][Orn][dDab][Dab]W[Dab][Chg]AS[dP]P)) | 3% |
| CC(C)C[C@@H]1NC(=O)[C@@H]2CCCN2C(=O)[C@H]2CCCN2C(=O)[C@H](CO)NC(=O)[C@H](C)NC(=O)[C@H](C(C)(C)C)NC(=O)[C@H](CCN)NC(=O)[C@H](Cc2c[nH]c3ccccc23)NC(=O)[C@H](CCN)NC(=O)[C@@H](CCN)NC(=O)[C@H](CCCN)NC(=O)[C@H](CCN)NC(=O)[C@H](Cc2c[nH]c3ccccc23)NC(=O)[C@H](Cc2c[nH]cn2)NC1=O [compound 24, cyclo(-Leu-His-Trp-Dab-Orn-^DDab-Dab-Trp-Dab-tBuGly-Ala-Ser-^DPro-Pro-)] (cyclo(LHW[Dab][Orn][dDab][Dab]W[Dab][Tle]AS[dP]P)) | 1% |
| CC(C)C[C@@H]1NC(=O)[C@@H]2CCCN2C(=O)[C@H]2CCCN2C(=O)[C@H](CO)NC(=O)[C@H](C)NC(=O)[C@H](C(C)(C)C)NC(=O)[C@H](CCN)NC(=O)[C@H](Cc2c[nH]c3ccccc23)NC(=O)[C@H](CCN)NC(=O)[C@@H](CCN)NC(=O)[C@H](CCCCN)NC(=O)[C@H](CCN)NC(=O)[C@H](Cc2ccc(O)cc2)NC(=O)[C@H](Cc2c[nH]cn2)NC1=O [compound 25, cyclo(-Leu-His-Tyr-Dab-Lys-^DDab-Dab-Trp-Dab-tBuGly-Ala-Ser-^DPro-Pro-)] (cyclo(LHY[Dab]K[dDab][Dab]W[Dab][Tle]AS[dP]P)) | 0% |
| CC(C)C[C@@H]1NC(=O)[C@@H]2CCCN2C(=O)[C@H]2CCCN2C(=O)[C@H](CO)NC(=O)[C@H](C)NC(=O)[C@H](CC2CCCCC2)NC(=O)[C@H](CCN)NC(=O)[C@H](Cc2c[nH]c3ccccc23)NC(=O)[C@H](CCN)NC(=O)[C@@H](CCN)NC(=O)[C@H](CCCN)NC(=O)[C@H](CCN)NC(=O)[C@H](Cc2ccc(O)cc2)NC(=O)[C@H](Cc2c[nH]c3ccccc23)NC1=O [compound 26, cyclo(-Leu-Trp-Tyr-Dab-Orn-^DDab-Dab-Trp-Dab-Cha-Ala-Ser-^DPro-Pro-)] (cyclo(LWY[Dab][Orn][dDab][Dab]W[Dab][Cha]AS[dP]P)) | 1% |
| CC(C)C[C@@H]1NC(=O)[C@@H]2CCCN2C(=O)[C@H]2CCCN2C(=O)[C@H](CO)NC(=O)[C@H](C)NC(=O)[C@H](C(C)(C)C)NC(=O)[C@H](CCN)NC(=O)[C@H](Cc2c[nH]c3ccccc23)NC(=O)[C@H](CCN)NC(=O)[C@@H](CCN)NC(=O)[C@H](CCCN)NC(=O)[C@H](CCN)NC(=O)[C@H](Cc2c[nH]c3ccccc23)NC(=O)[C@H](Cc2c[nH]c3ccccc23)NC1=O [compound 27, cyclo(-Leu-Trp-Trp-Dab-Orn-^DDab-Dab-Trp-Dab-tBuGly-Ala-Ser-^DPro-Pro-)] (cyclo(LWW[Dab][Orn][dDab][Dab]W[Dab][Tle]AS[dP]P)) | 0% |

From patent US10370412B2, “Beta-hairpin peptidomimetics” (Polyphor AG, priority 2013, dated 2019)
